This note sets out measurements from US12622448B2 (Givaudan SA, priority 2019, dated 2026).

Assay [1] in a line: Expert taster comparison with and without Amadori compound, plain low fat yoghurt. The note with it: base: 1.5% fat, 5% sugar, expert tasters (5-7). Here is the method:
(§1) The following formulations were prepared with and without Amadori compound and tasted by expert tasters (5-7) and compared. The Amadori compound was dosed in the consumable with no additional heating required.

A short description of assay [2]: Expert taster comparison with and without Amadori compound, almond milk. Particulars: 2 ppb; base: commercially available sweetened vanilla almond milk; expert tasters (5-7). The method, then: as §1
A short description of assay [3]: Expert taster comparison with and without Amadori compound, vanilla flavored milk. The note with it: expert tasters (5-7). Here is the method: as §1
A short description of assay [4]: Expert taster comparison with and without Amadori compound, chocolate flavored milk. Particulars: 5% sugar, 0.05% carrageenan, expert tasters (5-7). Here is the method: as §1
Assay [5] is described as follows: Expert taster comparison with and without Amadori compound, ice cream. Particulars: 10 ppb; base: 14.31% heavy whipping cream, 77.60% whole milk, 8% sucrose, 0.009% vanillin; expert tasters (5-7). The method, then: as §1
Assay [6] is described as follows: Expert taster comparison with and without Amadori compound, cheese sauce. The note with it: 10 ppm, expert tasters (5-7). Here is the method: as §1
Base: 33.46% Maltodextrin 10DE; 29.00% Starch Ultrasphere 2000; 10.00% Cheddar Cheese (white); 9.00% non-fat milk powder; 6.20% Whey; 5.00% canola shortening powder; 4.25% salt, 40 mesh; 0.35% yeast extract powder; 0.10% citric acid; 0.10% lactic acid; 2.54% cheese flavor.

A short description of assay [7]: Expert taster comparison with and without Amadori compound, strawberry flavored yoghurt. The note with it: base: 1.7% fat, 4% sugar, strawberry flavor 0.1%, expert tasters (5-7). The method, then: as §1
Strawberry Flavored Yoghurt

Assay [8] in a line: Expert taster comparison with and without Amadori compound, cream filling. The note with it: 10 ppb; base: 66.4% sucrose, 32% palm oil, 0.2% salt, 0.4% vanilla extract, 1% water; expert tasters (5-7). Here is the method:
as §1

In the case of `O=C(O)C1CCCN1CC1(O)OCC(O)C(O)C1O` (centres unmarked), the “taste/mouthfeel compared with base” value is “less sour, sweeter, creamy” in assay [1] (5 ppm); “increase upfront sweet, less sour” in assay [1] (10 ppm); “metallic linger, increase overall and upfront sweet” in assay [1] (25 ppm); “more creamy, stronger vanilla flavor, more body, more creamy mouthfeel; sweeter and more salty” in assay [2]; “sweeter linger, more powdery, more fatty body, full and creamy, more dairy impact, creamier mouthfeel, slight waxy mouthfeel” in assay [3] (0.1 ppb, base: 2% milk fat, 4% sugar, 0.2% vanilla extract); “sweeter, increase fullness, creamier mouthfeel, more dairy, slight waxy mouthfeel” in assay [3] (1 ppb, base: 2% milk fat, 4% sugar, 0.2% vanilla extract). The “taste/mouthfeel compared with base” value was “slightly fuller, richer than base, fuller like fat, sweeter” in assay [3] (20 ppm, base: half full milk, 5% sugar, 0.1% vanillin); “sweeter, more rich creamy, slightly sweeter, juicy, slight metallic and mouth drying” in assay [3] (δ ppm, base: 2% fat milk, 4% sugar, 0.15% vanilla flavor); “creamy, full, richer chocolate, slight waxy, more cocoa impact” in assay [4] (0.1 ppb, base: 2% milk fat, 2% cocoa powder); “more chocolate linger, more chocolate, more complex, full mouthfeel, sweeter impression, thicker, waxy, slight tingle” in assay [4] (1 ppb, base: 2% milk fat, 2% cocoa powder); “more rich, more body, more real chocolate profile, slight increase in bitterness” in assay [4] (10 ppm, base: 2% fat milk, 20/cocoa powder); “more creamy, sweeter, slightly more body and mouth round effect, slightly more milk fat taste” in assay [5]. Besides, the “taste/mouthfeel compared with base” value in assay [6] is “denser, cheesier, smooth, saltier, creamier mouthfeel, fresher dairy note, rich, slight metallic and astringent”; in assay [7] (1 ppb), “hardly any effect noticed”; in assay [7] (10 ppb), “sweeter, more creamy, richer mouthfeel, more fruity”; in assay [8], “more fatty and creamy, sweeter and more salty, more buttery profile”.

For `O=C(O)[C@H](Cc1c[nH]cn1)NCC(=O)[C@@H](O)[C@H](O)[C@H](O)CO` [Fru-His, N-(1-deoxy-D-fructose-1-yl)-L-histidine], the “taste/mouthfeel compared with base” value in assay [6] was “more cheesy, slight acidic, aged, meaty, tingling, chalky, increased mouthfeel, creamier”.

Turning to `CC[C@H](C)[C@H](NCC(=O)[C@@H](O)[C@H](O)[C@H](O)CO)C(=O)O` [Fru-Ileu, N-(1-deoxy-D-fructose-1-yl)-L-isoleucine], the “taste/mouthfeel compared with base” value in assay [6] was “slight acidic, bitter, creamier, increased saltiness”.

Regarding `CSCC[C@H](NCC(=O)[C@@H](O)[C@H](O)[C@H](O)CO)C(=O)O` [Fru-Met, N-(1-deoxy-D-fructose-1-yl)-L-methionine], the “taste/mouthfeel compared with base” value in assay [6] is reported as “more rich, cheesy, umami, astringent, sharper cheese notes, salty”.

As for `O=C(O)C(CO)NCC1(O)OCC(O)C(O)C1O` (centres unmarked) [Fru-Ser], the “taste/mouthfeel compared with base” value in assay [6] was “cheesy, creamy, rich, tingling, metallic, thick, smooth”.
